Data as given in ChEMBL document CHEMBL6078688, “Discovery of Novel MyD88 Inhibitor A5S to Alleviate Acute Lung Injury with Favorable Drug-like Properties” (J Med Chem, 2024).
Activity calls are given as the source filed them. No cut-off for these calls is given here.

Legend:
J774.A1 [1] = assay: Cytotoxicity against mouse J774.A1 cells at 3 to 12 uM by MTT assay; assay type: toxicity, cell-based; conditions: j774.a1, 12 µM, dose 3-12 µM
[2] = target: Toll-like receptor 4/Ly96 (Mus musculus) (UniProt Q9QUK6+Q9JHF9); assay: Inhibition of MD2/TLR4 protein-protein interaction in LPS-induced mouse J774.A1 cells at 20 uM incubated for 2 hrs by coimmunoprecipitation analysis; assay type: cell-based
[3] = target: T1, Myeloid differentiation primary response protein MyD88 (Homo sapiens, UniProt Q99836); assay: Binding affinity to CM5 sensor chip immobilized human MyD88 TIR domain assessed as dissociation constant by SPR analysis
[4] = target: T1, Myeloid differentiation primary response protein MyD88; assay: Inhibition of FLAG tagged and HA tagged MYD88 (unknown origin) expressed in LPS induced HEK293T cells at 20 uM incubated for 1 hr by coimmunoprecipitation analysis; assay type: cell-based
J774.A1 [5] = assay: Inhibition of MAPK signalling pathway in LPS stimulated mouse J774.A1 cells assessed as downregulation of IRAK4 phosphorylation by Western blotting analysis; assay type: cell-based
[6] = Drug concentration in Sprague-Dawley rat lung at 20 mg/kg,po administration measured upto 8 hrs by LC-MS/MS analysis; assay type: ADME, organism-based; conditions: in vivo
Mus musculus [7] = assay: Antiinflammatory activity in cecal ligation and puncture induced sepsis C57BL/6 mouse model assessed as reduction in IL-6 level in BALF at 20 mg/kg,po administrated with compound for 6 hrs followed by CLP induction and measured after 12 hrs by ELISA; assay type: functional, organism-based; conditions: time 18.0 hrs
Mus musculus [8] = assay: Antiinflammatory activity in cecal ligation and puncture induced sepsis C57BL/6 mouse model assessed as reduction in TNF-alpha mRNA level in lung at 20 mg/kg,po administrated with compound for 6 hrs followed by CLP induction and measured after 12 hrs by RT-PCR analysis; assay type: functional, organism-based; conditions: time 18.0 hrs
Mus musculus [9] = assay: Antiinflammatory activity in cecal ligation and puncture induced sepsis C57BL/6 mouse model assessed as reduction in interstitial edema in lung at 20 mg/kg,po administrated with compound for 6 hrs followed by CLP induction and measured after 12 hrs by H and E staining based analysis; assay type: functional, organism-based; conditions: time 18.0 hrs
Mus musculus [10] = assay: Antiinflammatory activity in cecal ligation and puncture induced sepsis C57BL/6 mouse model assessed as reduction in inflammatory infiltration in lung at 20 mg/kg,po administrated with compound for 6 hrs followed by CLP induction and measured after 12 hrs by H and E staining based analysis; assay type: functional, organism-based; conditions: time 18.0 hrs
Mus musculus [11] = assay: Antiinflammatory activity against LPS induced acute lung injury C57BL/6 mouse model assessed as reduction in pulmonary edema by measuring reduction of lung wet to dry ratio at 20 mg/kg,po administrated measured after 48 hrs; assay type: functional, organism-based
Mus musculus [12] = assay: Antiinflammatory activity against LPS induced acute lung injury C57BL/6 mouse model assessed as reduction in total protein concentration in BALF at 20 mg/kg,po administrated with compound for 30 mins followed by LPS treatment and measured after 6 hrs; assay type: functional, organism-based; conditions: time 6.5 hrs
Mus musculus [13] = assay: Antiinflammatory activity against LPS induced acute lung injury C57BL/6 mouse model assessed as reduction in IL-6 level in serum at 20 mg/kg,po administrated with compound for 30 mins followed by LPS treatment and measured after 6 hrs by ELISA; assay type: functional, organism-based; conditions: time 6.5 hrs
Mus musculus [14] = assay: Antiinflammatory activity against LPS induced acute lung injury C57BL/6 mouse model assessed as reduction in histopathological change in lung at 20 mg/kg,po administrated with compound for 30 mins followed by LPS treatment and measured after 6 hrs by H and E staining based analysis; assay type: functional, organism-based; conditions: time 6.5 hrs
Mus musculus [15] = assay: Antiinflammatory activity against LPS induced acute lung injury C57BL/6 mouse model assessed as reduction in of leukocytes in alveolar region at 20 mg/kg,po administrated with compound for 30 mins followed by LPS treatment and measured after 6 hrs by immunohistochemical staining based analysis; assay type: functional, organism-based
[16] = Acute toxicity in C57BL/6 mouse assessed as weight loss at 500 mg/kg,po administration measured after 3 days; assay type: organism-based; conditions: in vivo, 72 h, time 3 day
[17] = Acute toxicity in C57BL/6 mouse assessed as pathological change in heart at 500 mg/kg,po administration measured upto 11 days by hematoxylin and eosin staining based assay; assay type: organism-based; conditions: in vivo, 264 h, time < 11 day
[18] = Cmax in Sprague-Dawley rat at 1 mg/kg,iv administration measured upto 24 hrs by LC-MS/MS analysis; assay type: ADME, organism-based; conditions: in vivo
[19] = AUC (0 to t) in Sprague-Dawley rat at 1 mg/kg,iv administration measured upto 24 hrs by LC-MS/MS analysis; assay type: ADME, organism-based; conditions: in vivo
[20] = AUC (0 to infinity) in Sprague-Dawley rat at 1 mg/kg,iv administration measured upto 24 hrs by LC-MS/MS analysis; assay type: ADME, organism-based; conditions: in vivo
[21] = AUC (0 to t) in Sprague-Dawley rat at 20 mg/kg,po administration measured upto 24 hrs by LC-MS/MS analysis; assay type: ADME, organism-based; conditions: in vivo
[22] = Tmax in Sprague-Dawley rat at 20 mg/kg,po administration measured upto 24 hrs by LC-MS/MS analysis; assay type: ADME, organism-based; conditions: in vivo
[23] = Stability of compound in rat serum measured upto 12 hrs; assay type: ADME, cell-free

T1 sequence (Q99836 whole entry, the tested form may be a part): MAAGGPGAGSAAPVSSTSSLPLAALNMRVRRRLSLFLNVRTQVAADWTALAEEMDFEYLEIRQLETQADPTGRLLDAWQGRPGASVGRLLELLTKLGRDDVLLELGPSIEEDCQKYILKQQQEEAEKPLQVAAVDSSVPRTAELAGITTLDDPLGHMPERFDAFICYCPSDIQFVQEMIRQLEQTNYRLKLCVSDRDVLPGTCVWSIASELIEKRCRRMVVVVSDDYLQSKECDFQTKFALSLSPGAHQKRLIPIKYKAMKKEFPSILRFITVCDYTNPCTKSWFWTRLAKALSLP

## O[C@H](COc1ccc(Br)cc1)CN1CCN(Cc2cc3ccccc3[nH]2)CC1
J774.A1 [1]
  Activity: Non-toxic
[2]
  inhibition: inactive
[3]
  Kd: 15 µM
[4]
  inhibition: Active
J774.A1 [5]
  inhibition: Active
[6]
  Drug uptake: Active
Mus musculus [7]
  Activity: Active
Mus musculus [8]
  Activity: Active
Mus musculus [9]
  Activity: Active
Mus musculus [10]
  Activity: Active
Mus musculus [11]
  Activity: Active
Mus musculus [12]
  Activity: Active
Mus musculus [13]
  Activity: Active
Mus musculus [14]
  Activity: Active
Mus musculus [15]
  Activity: Active
[16]
  Activity: Toxic
[17]
  Activity: Non-toxic
[18]
  Cmax: 1080 ng/mL
[19]
  AUC(0-t) at 24 h: 691 ng·h/mL
[20]
  AUC(0-inf): 698 ng·h/mL
[21]
  AUC(0-t) at 24 h: 2860 ng·h/mL
[22]
  Tmax: 3.67 h
[23]
  Stability: Stable
